Measured values as given in PubChem BioAssay (NCI).
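Following 48 hours of exposure in 96-well plates, responses at five concentrations were used to interpolate endpoints linearly. At the GI50, growth is halved. TGI denotes the concentration required for complete inhibition of growth.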

Experiments:
Experiment in all cases: NCI-60 cell line screen, 48 h
HCC-2998 colon = tested on: HCC-2998 colon
TK-10 renal = tested on: TK-10 renal
HT29 colon = tested on: HT29 colon
NCI/ADR-RES ovarian = tested on: NCI/ADR-RES ovarian
SF-295 CNS = tested on: SF-295 CNS
A498 renal = tested on: A498 renal
SK-MEL-2 melanoma = tested on: SK-MEL-2 melanoma
HS 578T breast = tested on: HS 578T breast
U251 CNS = tested on: U251 CNS
786-0 renal = tested on: 786-0 renal
SNB-75 CNS = tested on: SNB-75 CNS
LOX IMVI melanoma = tested on: LOX IMVI melanoma
KM12 colon = tested on: KM12 colon
OVCAR-5 ovarian = tested on: OVCAR-5 ovarian
NCI-H522 lung = tested on: NCI-H522 lung
BT-549 breast = tested on: BT-549 breast
OVCAR-4 ovarian = tested on: OVCAR-4 ovarian
CCRF-CEM leukemia = tested on: CCRF-CEM leukemia
SN12C renal = tested on: SN12C renal
SK-MEL-5 melanoma = tested on: SK-MEL-5 melanoma
CAKI-1 renal = tested on: CAKI-1 renal
SK-MEL-28 melanoma = tested on: SK-MEL-28 melanoma
HOP-92 NSCLC = tested on: HOP-92 NSCLC
SR leukemia = tested on: SR leukemia
MOLT-4 leukemia = tested on: MOLT-4 leukemia
A549 NSCLC = tested on: A549 NSCLC
SNB-19 CNS = tested on: SNB-19 CNS

Q: `COc1cc(/C=N/n2cnc3oc(-c4ccccc4)cc3c2=N)cc(CN2CCCCC2)c1O` was tested. Which TGI (HCC-2998 colon) did it give?
A: 3340 nM

Q: And the GI50 (TK-10 renal)?
A: 1910 nM

Q: What about the TGI (TK-10 renal) of the same compound?
A: 3460 nM

Q: And the GI50 (HT29 colon)?
A: 489 nM

Q: And the TGI (HT29 colon)?
A: 1790 nM

Q: What about the GI50 (NCI/ADR-RES ovarian) of the same compound?
A: 2140 nM

Q: And the TGI (NCI/ADR-RES ovarian)?
A: 4910 nM

Q: What about the GI50 (SF-295 CNS) of the same compound?
A: 1830 nM

Q: What about the TGI (SF-295 CNS) of the same compound?
A: 3390 nM

Q: And the GI50 (A498 renal)?
A: 1730 nM

Q: What about the TGI (A498 renal) of the same compound?
A: 3280 nM

Q: And the GI50 (SK-MEL-2 melanoma)?
A: 1790 nM

Q: What about the TGI (SK-MEL-2 melanoma) of the same compound?
A: 3660 nM

Q: What about the GI50 (HS 578T breast) of the same compound?
A: 1830 nM

Q: What about the TGI (HS 578T breast) of the same compound?
A: 4360 nM

Q: And the GI50 (U251 CNS)?
A: 1830 nM

Q: What about the TGI (U251 CNS) of the same compound?
A: 3600 nM

Q: And the GI50 (786-0 renal)?
A: 1480 nM

Q: And the TGI (786-0 renal)?
A: 3030 nM

Q: And the GI50 (SNB-75 CNS)?
A: 1390 nM

Q: What about the TGI (SNB-75 CNS) of the same compound?
A: 2790 nM

Q: What about the GI50 (LOX IMVI melanoma) of the same compound?
A: 444 nM

Q: What about the TGI (LOX IMVI melanoma) of the same compound?
A: 1520 nM

Q: What about the GI50 (KM12 colon) of the same compound?
A: 1810 nM

Q: And the TGI (KM12 colon)?
A: 3390 nM

Q: And the GI50 (OVCAR-5 ovarian)?
A: 1890 nM

Q: And the TGI (OVCAR-5 ovarian)?
A: 3460 nM

Q: And the GI50 (NCI-H522 lung)?
A: 2010 nM

Q: And the TGI (NCI-H522 lung)?
A: 4510 nM

Q: And the GI50 (BT-549 breast)?
A: 2120 nM

Q: What about the TGI (BT-549 breast) of the same compound?
A: 4190 nM

Q: And the GI50 (OVCAR-4 ovarian)?
A: 1750 nM

Q: What about the TGI (OVCAR-4 ovarian) of the same compound?
A: 3670 nM

Q: And the GI50 (CCRF-CEM leukemia)?
A: 324 nM

Q: What about the TGI (CCRF-CEM leukemia) of the same compound?
A: 1250 nM

Q: What about the GI50 (SN12C renal) of the same compound?
A: 1550 nM

Q: What about the TGI (SN12C renal) of the same compound?
A: 3210 nM

Q: And the GI50 (SK-MEL-5 melanoma)?
A: 1760 nM

Q: What about the TGI (SK-MEL-5 melanoma) of the same compound?
A: 3170 nM

Q: What about the GI50 (CAKI-1 renal) of the same compound?
A: 1430 nM

Q: And the TGI (CAKI-1 renal)?
A: 2770 nM

Q: What about the GI50 (SK-MEL-28 melanoma) of the same compound?
A: 1630 nM

Q: What about the TGI (SK-MEL-28 melanoma) of the same compound?
A: 3250 nM

Q: And the GI50 (HOP-92 NSCLC)?
A: 1480 nM

Q: What about the TGI (HOP-92 NSCLC) of the same compound?
A: 3280 nM

Q: What about the GI50 (SR leukemia) of the same compound?
A: 247 nM

Q: And the TGI (SR leukemia)?
A: 687 nM

Q: And the GI50 (MOLT-4 leukemia)?
A: 2250 nM

Q: And the TGI (MOLT-4 leukemia)?
A: 6570 nM

Q: What about the GI50 (A549 NSCLC) of the same compound?
A: 1700 nM

Q: What about the TGI (A549 NSCLC) of the same compound?
A: 3450 nM

Q: What about the GI50 (SNB-19 CNS) of the same compound?
A: 1980 nM

Q: And the TGI (SNB-19 CNS)?
A: 3730 nM
